# Data taken from patent publication US8901133B2, “Heterocyclic compounds and uses thereof” (Infinity Pharmaceuticals, Inc., priority 2010, dated 2014).
# Tests used:
# PI3Kγ = target: T1, PI3Kγ (Homo sapiens, UniProt P48736); experiment: PI3 Kinase HTRF assay, PI3Kγ; assay type: biochemical; conditions: 10 μM PIP2, 10 μM ATP; read-out: PI3K γ IC50
# T1 construct: purchased Millipore Corporation 14-558-K
# From the text: (§1) A PI3 Kinase HTRF® assay kit (cat No. 33-016) purchased from Millipore Corporation was used to screen compounds disclosed herein. This assay used specific, high affinity binding of the GRP1 pleckstrin homology (PH) domain to PIP3, the product of a Class 1A or 1B PI3 Kinase acting on its physiological substrate PIP2. During the detection phase of the assay, a complex was generated between the GST-tagged PH domain and biotinylated short chain PIP3. The biotinylated PIP3 and the GST-tagged PH domain recruited fluorophores (Streptavidin-Allophycocyanin and Europium-labeled anti-GST respectively) to form the fluorescence resonance energy transfer (FRET) architecture, generating a stable time-resolved FRET signal. The FRET complex was disrupted in a competitive manner by non-biotinylated PIP3, a product formed in the PI3 Kinase assay.
# (§2) PI3 Kinase α, β, γ and δ activity was assayed using the PI3 Kinase HTRF® assay kit (catalogue No. 33-016) purchased from Millipore Corporation. Purified recombinant PI3Kα (catalogue No. 14-602-K), PI3Kβ (catalogue No. 14-603-K), PI3Kγ (catalogue No. 14-558-K) and PI3Kδ (catalogue No. 14-604-K) were obtained from Millipore Corporation. Purified recombinant PI3K enzyme was used to catalyze the phosphorylation of phosphatidylinositol 4,5-bisphosphate (PIP2 at 10 μM) to phosphatidylinositol 3,4,5-trisphosphate (PIP3) in the presence of 10 μM ATP. The assay was carried out in 384-well format and detected using a Perkin Elmer En Vision Xcite Multilabel Reader. Emission ratios were converted into percent inhibitions and imported into GraphPad Prism software. The concentration necessary to achieve inhibition of enzyme activity by 50% (IC50) was calculated using concentrations ranging from 20 μM to 0.1 nM (12-point curve). IC50 values were determined using a nonlinear regression model available in GraphPad Prism 5. […]
# PI3Kβ = target: T2, PI3Kβ (Homo sapiens, UniProt P42338); experiment: PI3 Kinase HTRF assay, PI3Kβ; assay type: biochemical; conditions: 10 μM PIP2, 10 μM ATP; read-out: PI3K β IC50
# T2 construct: purchased Millipore Corporation 14-603-K
# From the text: as §1, §2
# PI3Kδ = target: T3, PI3Kδ (Homo sapiens, UniProt O00329); experiment: PI3 Kinase HTRF assay, PI3Kδ; assay type: biochemical; conditions: 10 μM PIP2, 10 μM ATP; read-out: PI3K δ IC50
# T3 construct: purchased Millipore Corporation 14-604-K
# From the text: as §1, §2
# PI3Kα = target: T4, PI3Kα (Homo sapiens, UniProt P42336); experiment: PI3 Kinase HTRF assay, PI3Kα; assay type: biochemical; conditions: 10 μM PIP2, 10 μM ATP; read-out: PI3K α IC50
# T4 construct: purchased Millipore Corporation 14-602-K
# From the text: as §1, §2
# Balb/c splenic B cells = experiment: B cell activation and proliferation assay (Alamar Blue); assay type: cell-based; conditions: Mus musculus, read-out: B cell prolif. IC50
# Method: The ability of one or more subject compounds to inhibit B cell activation and proliferation is determined according to standard procedures known in the art. For example, an in vitro cellular proliferation assay is established that measures the metabolic activity of live cells. The assay is performed in a 96 well microtiter plate using Alamar Blue reduction. Balb/c splenic B cells are purified over a Ficoll-Paque™ PLUS gradient followed by magnetic cell separation using a MACS B cell Isolation Kit (Miletenyi). Cells are plated in 90 ul at 50,000 cells/well in B Cell Media (RPMI+10% FBS+Penn/Strep+50 uM bME+5 mM HEPES). A compound disclosed herein is diluted in B Cell Media and added in a 10 μl volume. Plates are incubated for 30 min at 37 C and 5% CO2 (0.2% DMSO final concentration). A 50 μl B cell stimulation cocktail is then added containing either 10 ug/ml LPS or 5 ug/ml F(ab′)2 Donkey anti-mouse IgM plus 2 ng/ml recombinant mouse IL4 in B Cell Media. Plates are incubated for 72 hours at 37° C. and 5% CO2. A volume of 15 μl of Alamar Blue reagent is added to each well and plates are incubated for 5 hours at 37 C and 5% CO2. Alamar Blue fluoresce is read at 560Ex/590Em, and IC50 or EC50 values are calculated using GraphPad Prism 5.
# T2 sequence (P42338 whole entry): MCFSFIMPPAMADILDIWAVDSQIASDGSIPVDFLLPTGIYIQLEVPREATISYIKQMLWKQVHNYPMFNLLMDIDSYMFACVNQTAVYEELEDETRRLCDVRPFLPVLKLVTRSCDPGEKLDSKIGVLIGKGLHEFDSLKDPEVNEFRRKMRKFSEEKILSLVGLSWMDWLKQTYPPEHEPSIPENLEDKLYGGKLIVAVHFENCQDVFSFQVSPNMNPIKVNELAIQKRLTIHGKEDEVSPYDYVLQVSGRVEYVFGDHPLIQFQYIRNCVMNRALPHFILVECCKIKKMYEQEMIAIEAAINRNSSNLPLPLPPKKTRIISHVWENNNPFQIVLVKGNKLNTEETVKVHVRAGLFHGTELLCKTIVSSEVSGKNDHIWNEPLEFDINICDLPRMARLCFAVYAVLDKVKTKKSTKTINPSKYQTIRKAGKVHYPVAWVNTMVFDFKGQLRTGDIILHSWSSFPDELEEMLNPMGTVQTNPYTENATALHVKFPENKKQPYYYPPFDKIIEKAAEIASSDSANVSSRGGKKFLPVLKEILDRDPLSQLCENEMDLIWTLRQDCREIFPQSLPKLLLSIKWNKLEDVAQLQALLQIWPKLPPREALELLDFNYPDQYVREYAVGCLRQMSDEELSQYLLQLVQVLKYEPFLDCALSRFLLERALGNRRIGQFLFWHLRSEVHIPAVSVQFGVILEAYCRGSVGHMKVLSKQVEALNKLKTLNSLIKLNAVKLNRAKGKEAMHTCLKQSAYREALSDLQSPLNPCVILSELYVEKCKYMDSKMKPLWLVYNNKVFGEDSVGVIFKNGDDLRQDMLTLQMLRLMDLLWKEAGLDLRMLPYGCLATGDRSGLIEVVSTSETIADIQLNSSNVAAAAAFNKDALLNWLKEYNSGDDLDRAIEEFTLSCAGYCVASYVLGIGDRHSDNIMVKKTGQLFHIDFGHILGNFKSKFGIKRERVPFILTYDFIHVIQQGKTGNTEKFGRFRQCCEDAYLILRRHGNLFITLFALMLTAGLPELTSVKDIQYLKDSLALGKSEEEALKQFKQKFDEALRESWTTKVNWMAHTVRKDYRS
# T2 sequence (P27986 whole entry partner): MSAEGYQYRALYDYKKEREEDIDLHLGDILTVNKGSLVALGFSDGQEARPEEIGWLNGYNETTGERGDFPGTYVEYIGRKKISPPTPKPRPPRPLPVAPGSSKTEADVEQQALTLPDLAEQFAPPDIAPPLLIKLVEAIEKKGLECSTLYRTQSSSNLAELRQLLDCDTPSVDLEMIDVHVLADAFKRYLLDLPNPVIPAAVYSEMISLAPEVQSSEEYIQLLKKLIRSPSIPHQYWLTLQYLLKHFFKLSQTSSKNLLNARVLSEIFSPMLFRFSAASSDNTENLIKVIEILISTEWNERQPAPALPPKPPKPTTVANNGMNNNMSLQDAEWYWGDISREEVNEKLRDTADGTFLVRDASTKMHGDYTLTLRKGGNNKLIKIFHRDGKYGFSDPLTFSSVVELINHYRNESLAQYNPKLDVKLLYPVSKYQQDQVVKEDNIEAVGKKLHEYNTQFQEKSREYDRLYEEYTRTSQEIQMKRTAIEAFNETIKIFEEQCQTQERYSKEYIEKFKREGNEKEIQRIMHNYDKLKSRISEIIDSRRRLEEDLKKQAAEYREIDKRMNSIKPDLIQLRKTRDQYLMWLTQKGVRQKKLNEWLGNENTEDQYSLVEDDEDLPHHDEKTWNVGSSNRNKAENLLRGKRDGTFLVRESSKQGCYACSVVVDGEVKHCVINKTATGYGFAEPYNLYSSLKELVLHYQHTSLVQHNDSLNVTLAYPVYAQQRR
# T3 sequence (O00329 whole entry): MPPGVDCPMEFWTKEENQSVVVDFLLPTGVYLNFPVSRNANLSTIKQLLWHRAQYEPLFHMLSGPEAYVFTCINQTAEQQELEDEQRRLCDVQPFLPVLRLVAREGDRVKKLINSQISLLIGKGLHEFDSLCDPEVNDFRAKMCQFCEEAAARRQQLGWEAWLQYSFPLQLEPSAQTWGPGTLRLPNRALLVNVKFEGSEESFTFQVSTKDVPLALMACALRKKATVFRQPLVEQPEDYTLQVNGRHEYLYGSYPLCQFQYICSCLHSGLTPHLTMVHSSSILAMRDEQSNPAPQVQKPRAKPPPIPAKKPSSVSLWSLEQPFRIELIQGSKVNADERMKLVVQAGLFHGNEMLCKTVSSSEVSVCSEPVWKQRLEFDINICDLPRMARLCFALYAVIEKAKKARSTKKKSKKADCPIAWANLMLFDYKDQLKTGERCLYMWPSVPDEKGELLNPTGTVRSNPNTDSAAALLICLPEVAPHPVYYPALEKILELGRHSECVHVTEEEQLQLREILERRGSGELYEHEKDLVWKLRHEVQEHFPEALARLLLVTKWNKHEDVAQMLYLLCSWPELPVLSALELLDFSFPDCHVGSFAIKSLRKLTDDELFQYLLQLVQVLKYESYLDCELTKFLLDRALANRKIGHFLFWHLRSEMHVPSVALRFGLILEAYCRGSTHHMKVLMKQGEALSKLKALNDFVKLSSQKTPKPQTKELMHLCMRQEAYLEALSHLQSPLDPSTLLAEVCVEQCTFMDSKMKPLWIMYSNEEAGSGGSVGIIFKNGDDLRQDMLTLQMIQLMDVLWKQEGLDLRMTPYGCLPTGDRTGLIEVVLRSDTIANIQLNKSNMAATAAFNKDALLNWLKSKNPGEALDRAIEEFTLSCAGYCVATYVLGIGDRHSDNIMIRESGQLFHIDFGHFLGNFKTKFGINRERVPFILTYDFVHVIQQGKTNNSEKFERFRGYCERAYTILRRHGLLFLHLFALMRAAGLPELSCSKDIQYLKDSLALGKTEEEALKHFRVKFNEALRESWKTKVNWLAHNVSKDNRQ
# T3 sequence (P27986 whole entry partner): as the sequence (P27986 whole entry partner) above
# T1 sequence (P48736 whole entry): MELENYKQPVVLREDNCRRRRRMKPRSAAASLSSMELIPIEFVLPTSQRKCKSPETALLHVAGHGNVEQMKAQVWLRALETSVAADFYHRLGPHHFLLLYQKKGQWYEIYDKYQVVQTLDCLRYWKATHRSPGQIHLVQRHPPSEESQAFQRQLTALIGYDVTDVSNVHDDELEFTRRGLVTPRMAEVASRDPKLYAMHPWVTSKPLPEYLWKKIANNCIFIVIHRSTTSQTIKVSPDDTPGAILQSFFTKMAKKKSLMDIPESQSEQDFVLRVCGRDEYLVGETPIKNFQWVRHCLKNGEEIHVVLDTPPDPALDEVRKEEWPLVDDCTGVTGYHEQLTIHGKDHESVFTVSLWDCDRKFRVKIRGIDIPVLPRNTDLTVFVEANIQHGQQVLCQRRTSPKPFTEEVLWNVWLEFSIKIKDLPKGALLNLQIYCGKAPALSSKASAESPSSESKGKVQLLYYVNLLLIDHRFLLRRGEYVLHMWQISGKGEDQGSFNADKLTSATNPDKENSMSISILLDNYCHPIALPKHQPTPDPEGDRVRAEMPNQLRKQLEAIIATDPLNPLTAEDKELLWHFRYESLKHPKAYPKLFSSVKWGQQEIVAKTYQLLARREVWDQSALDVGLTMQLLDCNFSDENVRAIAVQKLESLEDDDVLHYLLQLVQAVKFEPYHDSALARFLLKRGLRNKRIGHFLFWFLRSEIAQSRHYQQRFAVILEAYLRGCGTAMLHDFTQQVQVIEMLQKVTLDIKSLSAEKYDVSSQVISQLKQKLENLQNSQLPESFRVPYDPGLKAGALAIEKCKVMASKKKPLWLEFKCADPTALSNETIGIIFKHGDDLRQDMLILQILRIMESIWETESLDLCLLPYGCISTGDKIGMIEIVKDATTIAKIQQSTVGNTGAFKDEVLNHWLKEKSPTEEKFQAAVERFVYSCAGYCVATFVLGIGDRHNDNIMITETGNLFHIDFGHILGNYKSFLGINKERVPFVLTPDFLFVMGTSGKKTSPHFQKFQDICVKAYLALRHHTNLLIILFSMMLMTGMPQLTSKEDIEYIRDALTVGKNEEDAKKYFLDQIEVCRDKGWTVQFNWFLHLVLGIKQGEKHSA
# T4 sequence (P42336 whole entry): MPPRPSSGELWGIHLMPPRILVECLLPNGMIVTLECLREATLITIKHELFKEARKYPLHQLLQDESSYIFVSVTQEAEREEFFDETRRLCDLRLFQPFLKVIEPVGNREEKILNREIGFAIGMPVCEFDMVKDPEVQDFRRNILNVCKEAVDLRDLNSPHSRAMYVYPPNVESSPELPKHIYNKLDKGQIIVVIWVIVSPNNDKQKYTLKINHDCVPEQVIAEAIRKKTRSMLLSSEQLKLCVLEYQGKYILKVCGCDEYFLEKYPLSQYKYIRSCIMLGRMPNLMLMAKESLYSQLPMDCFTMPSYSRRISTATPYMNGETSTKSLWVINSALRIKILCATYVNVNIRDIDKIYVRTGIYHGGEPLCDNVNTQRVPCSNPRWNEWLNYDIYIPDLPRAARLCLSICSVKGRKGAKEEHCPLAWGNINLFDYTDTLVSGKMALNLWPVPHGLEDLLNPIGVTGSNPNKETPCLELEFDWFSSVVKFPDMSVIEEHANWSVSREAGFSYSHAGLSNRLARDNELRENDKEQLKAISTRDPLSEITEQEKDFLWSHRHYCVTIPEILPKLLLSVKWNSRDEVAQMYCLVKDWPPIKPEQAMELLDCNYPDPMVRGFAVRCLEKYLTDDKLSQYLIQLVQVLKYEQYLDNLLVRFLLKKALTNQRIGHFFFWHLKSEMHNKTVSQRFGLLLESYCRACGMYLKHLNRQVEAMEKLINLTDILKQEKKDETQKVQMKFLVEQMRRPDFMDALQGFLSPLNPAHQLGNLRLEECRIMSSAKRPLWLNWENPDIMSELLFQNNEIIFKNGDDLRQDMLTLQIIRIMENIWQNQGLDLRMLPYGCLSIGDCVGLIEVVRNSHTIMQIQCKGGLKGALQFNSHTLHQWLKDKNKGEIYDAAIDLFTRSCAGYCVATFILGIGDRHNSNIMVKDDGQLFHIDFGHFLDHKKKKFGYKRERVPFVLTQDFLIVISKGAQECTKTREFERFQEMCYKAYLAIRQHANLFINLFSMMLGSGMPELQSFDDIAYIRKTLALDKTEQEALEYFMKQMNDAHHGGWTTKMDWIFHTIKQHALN
# T4 sequence (P27986 whole entry partner): as the sequence (P27986 whole entry partner) above
SMILES,IC50 (PI3Kγ),IC50 (PI3Kβ),IC50 (PI3Kδ),IC50 (PI3Kα),IC50 (Balb/c splenic B cells)
C[C@H](Nc1ncnc2[nH]cnc12)c1cc2cccc(Cl)c2c(CCN2CCOCC2)n1 [Compound 4],< 10 µM,< 10 µM,< 0.1 µM,< 10 µM,< 0.1 µM
C[C@H](Nc1ncnc2[nH]cnc12)c1cc2cccc(Cl)c2c(CN2CCOCC2)n1 [Compound 7],< 10 µM,> 10 µM,< 0.1 µM,> 10 µM,< 0.1 µM
C[C@H](Nc1ncnc2[nH]cnc12)c1cc2cccc(Cl)c2c(CN2CCC(F)(F)C2)n1 [Compound 8],< 1 µM,< 10 µM,< 1 µM,< 10 µM,< 1 µM
C[C@H](Nc1ncnc2[nH]cnc12)c1cc2cccc(Cl)c2c(C(=O)N2CCOCC2)n1 [Compound 13],< 0.1 µM,< 10 µM,< 0.1 µM,> 10 µM,< 0.1 µM
C[C@H](Nc1ncnc2[nH]cnc12)c1cc2cccc(Cl)c2c(C(=O)N2CCCC2)n1 [Compound 14],< 10 µM,> 10 µM,< 0.1 µM,> 10 µM,< 0.1 µM
C[C@H](Nc1ncnc2[nH]cnc12)c1cc2cccc(Cl)c2c(C(=O)N2CCN(C)CC2)n1 [Compound 15],< 10 µM,> 10 µM,< 0.1 µM,< 10 µM,< 0.1 µM
C[C@H](Nc1ncnc2[nH]cnc12)c1cc2cccc(Cl)c2c(C(=O)N2C3CCC2COC3)n1 [Compound 16],< 10 µM,< 10 µM,< 0.1 µM,> 10 µM,< 0.1 µM
C[C@@H]1CN(C(=O)c2nc([C@H](C)Nc3ncnc4[nH]cnc34)cc3cccc(Cl)c23)CCN1 [Compound 17],> 10 µM,< 10 µM,< 0.1 µM,> 10 µM,< 1 µM
C[C@H](Nc1ncnc2[nH]cnc12)c1cc2cccc(Cl)c2c(C(=O)N2CCN[C@@H](C)C2)n1 [Compound 18],< 10 µM,< 1 µM,< 0.1 µM,< 10 µM,< 1 µM
C[C@H](Nc1ncnc2[nH]cnc12)c1cc2cccc(Cl)c2c(C(=O)N2CC3CCC(C2)O3)n1 [Compound 19],< 1 µM,< 10 µM,< 0.1 µM,> 10 µM,< 0.1 µM
C[C@H](Nc1ncnc2[nH]cnc12)c1cc2cccc(Cl)c2c(C(=O)N2CCC(F)(F)C2)n1 [Compound 20],< 1 µM,> 10 µM,< 0.1 µM,> 10 µM,< 0.1 µM
C[C@H](Nc1ncnc2[nH]cnc12)c1cc2cccc(Cl)c2c(C(=O)N2CC(F)(F)C2)n1 [Compound 21],< 1 µM,> 10 µM,< 0.1 µM,> 10 µM,< 0.1 µM
C[C@H](Nc1ncnc2[nH]cnc12)c1cc2cccc(Cl)c2c(C(=O)NC2CCC2)n1 [Compound 23],< 10 µM,> 10 µM,< 0.1 µM,> 10 µM,< 0.1 µM
C[C@H](Nc1ncnc2[nH]cnc12)c1cc2cccc(Cl)c2c(C(=O)N2CCC2)n1 [Compound 24],< 10 µM,< 10 µM,< 1 µM,> 10 µM,< 1 µM
C[C@H](Nc1ncnc2[nH]cnc12)c1cc2cccc(Cl)c2c(C(=O)Nc2ccccc2)n1 [Compound 25],< 10 µM,< 10 µM,< 0.1 µM,> 10 µM,< 1 µM
C[C@H](Nc1ncnc2[nH]cnc12)c1cc2cccc(Cl)c2c(C(=O)NCc2ccccc2)n1 [Compound 26],< 1 µM,< 10 µM,< 0.1 µM,> 10 µM,< 0.1 µM
